Experimental findings from patent publication US9445594B2, “Molecules having certain pesticidal utilities, intermediates, compositions, and processes, related thereto” (priority 2014, dated 2016) are described below.

Common to all, as to assay type: in vivo
For data set [1], the system named is Beet Armyworm (Spodoptera exigua, LAPHEG) ("BAW"). In words: Bioassays on BAW, 128-well diet tray assay. The note with it: 168 h, second instar larvae, 50 μg/cm^2 on artificial diet, 25° C., five to seven days, average of eight wells, read-out: BAW % Control (or Mortality) rating. In outline: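 One to five second-instar larvae were placed per well on artificial diet surface-treated with 50 μg/cm^2 compound from 90:10 acetone-water, dried before infestation. Trays were held at 25 °C, 14:10 light-dark, for five to seven days. Percent mortality was averaged over eight wells.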

Data set [2] deals with Cabbage Looper (Trichoplusia ni, TRIPNI) ("CL"). Put plainly: Bioassays on CL, 128-well diet tray assay. The note with it: 168 h, second instar larvae, 50 μg/cm^2 on artificial diet, 25° C., five to seven days, average of eight wells, read-out: CL % Control (or Mortality) rating. In outline:
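Second-instar larvae (one to five per well) on artificial diet surface-treated with 50 μg/cm^2 compound in 90:10 acetone-water, eight wells per treatment. Held at 25° C., 14:10 light-dark for five to seven days. Percent mortality scored per well and averaged over the eight wells.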

Data set [3] has as its system Green Peach Aphid (Myzus persicae, MYZUPE) ("GPA"). Put plainly: Bioassays on GPA, foliar spray of infested cabbage seedlings. The note with it: 72 h, 200 ppm spray on cabbage seedlings, graded after three days, Abbott corrected % control, read-out: GPA % Control (or Mortality) rating. The procedure: Certain molecules disclosed in this document were tested against GPA using procedures described in the following example. In the reporting of the results, the “GPA Rating Table” was used (See Table Section).
Cabbage seedlings grown in 3-inch pots, with 2-3 small (3-5 cm) true leaves, were used as test substrate. The seedlings were infested with 20-50 GPA (wingless adult and nymph stages) one day prior to chemical application. Four pots with individual seedlings were used for each treatment. Test compounds (2 mg) were dissolved in 2 mL of acetone/methanol (1:1) solvent, forming stock solutions of 1000 ppm test compound. The stock solutions were diluted 5× with 0.025% Tween 20 in water to obtain the solution at 200 ppm test compound. A hand-held aspirator-type sprayer was used for spraying a solution to both sides of […] leaves until runoff. Reference plants (solvent check) were sprayed with the diluent only containing 20% by volume of acetone/methanol (1:1) solvent. Treated plants were held in a holding room for three days at approximately 25° C. and ambient relative humidity (RH) prior to grading. Evaluation was conducted by counting the number of live aphids per plant under a microscope. Percent Control was measured by using Abbott's correction formula (W. S. Abbott, “A Method of Computing the Effectiveness of an Insecticide” J. Econ. Entomol. 18 (1925), pp. 265-267) as follows. Corrected % Control=100*(X−Y)/X • where • X=No. of live aphids on solvent check plants and • Y=No. of live aphids on treated plants

Data set [4] deals with Yellow Fever Mosquito (Aedes aegypti, AEDSAE) ("YFM"). Put plainly: Bioassays on YFM, 96-well plate larval assay. The note with it: about 1 day-old larvae, from 4000 ppm DMSO master plate diluted, room temperature, scored after 3 days. In outline:
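Compounds from 4000 ppm DMSO master plates, diluted in 90:10 water:acetone, dispensed into 96-well plates, six replicates. About 1-day-old larvae added in liver-powder water. Wells covered, held 3 days at room temperature, then scored for mortality.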

One may read the mortality as the share of the test organisms that died.

Molecules are shown by their SMILES.

With `CCc1ccccc1-c1cccnc1NC(=O)Nc1ccc(-c2ncn(-c3ccc(OC(F)(F)F)cc3)n2)cc1` [F16, 1-(3-(2-Ethylphenyl)pyridin-2-yl)-3-(4-(1-(4-(trifluoromethoxy)phenyl)-1H-1,2,4-triazol-3-yl)phenyl)urea], the mortality at 50 µg/cm2 in data set [1] and in data set [2] was 50 to 100% each time. In data set [3], the mortality at 200 ppm lay in the range of 0 to 80%. The “YFM % Control (or Mortality) rating” value in data set [4] is “D (No activity noticed in this bioassay)”.

Consider `O=C(Nc1ccc(-c2ncn(-c3ccc(OC(F)(F)F)cc3)n2)cc1)Nc1ccccc1-c1ccccc1` [F31, 1-([1,1′-biphenyl]-2-yl)-3-(4-(1-(4-(trifluoromethoxy)phenyl)-1H-1,2,4-triazol-3-yl)phenyl)urea], for which the mortality at 50 µg/cm2 in data set [1] and in data set [2] was 50 to 100% throughout. The mortality at 200 ppm in data set [3] was 0 to 80%. For the same molecule, in data set [4], the “YFM % Control (or Mortality) rating” value is “A (80-100)”.

Turning to `Cc1cc(C)cc(NC(=O)NCCCc2ccc(-c3ncn(-c4ccc(OC(F)(F)F)cc4)n3)cc2)c1` [P1, 1-(3,5-Dimethylphenyl)-3-(3-(4-(1-(4-(trifluoromethoxy)phenyl)-1H-1,2,4-triazol-3-yl)phenyl)propyl)urea], the mortality at 50 µg/cm2 in data set [1] and in data set [2] was 0% each time. Also, in data set [3], the mortality at 200 ppm is 0%. The “YFM % Control (or Mortality) rating” value in data set [4] is given as “D (No activity noticed in this bioassay)”.

As to `O=C(NCCCc1ccc(-c2ncn(-c3ccc(OC(F)(F)F)cc3)n2)cc1)Nc1ccccc1-c1ccccc1` [P9, 1-([1,1′-Biphenyl]-2-yl)-3-(3-(4-(1-(4-(trifluoromethoxy)phenyl)-1H-1,2,4-triazol-3-yl)phenyl)propyl)urea], the mortality at 50 µg/cm2 in data set [1] was 0%; in data set [2], 50 to 100%. In addition, the mortality at 200 ppm in data set [3] was found to be 0%. The “YFM % Control (or Mortality) rating” value in data set [4] is “B (More than 0 - Less than 80)”.

For the molecule `CSc1ccccc1-c1ccccc1NC(=O)Nc1ccc(-c2ncn(-c3ccc(OC(F)(F)F)cc3)n2)cc1` [F60, 1-(2′-(Methylthio)-[1,1′-biphenyl]-2-yl)-3-(4-(1-(4-(trifluoromethoxy)phenyl)-1H-1,2,4-triazol-3-yl)phenyl)urea], the mortality at 50 µg/cm2 in data set [1] and in data set [2] was 50 to 100% each time. For the same molecule, the mortality at 200 ppm in data set [3] lay in the range of 0 to 80%. Also, in data set [4], the “YFM % Control (or Mortality) rating” value is reported as “A (80-100)”.

As for `Cc1ccccc1-c1cccnc1NC(=S)Nc1ccc(-c2ncn(-c3ccc(OC(F)(F)F)cc3)n2)cc1` [F11, 1-(3-(o-Tolyl)pyridin-2-yl)-3-(4-(1-(4-(trifluoromethoxy)phenyl)-1H-1,2,4-triazol-3-yl)phenyl)thiourea], in data set [1], the mortality at 50 µg/cm2 was in the range of 50 to 100%. The mortality at 200 ppm in data set [3] lay within 0 to 80%. Besides, in data set [4], the “YFM % Control (or Mortality) rating” value is given as “D (No activity noticed in this bioassay)”.

Take `FC(F)(F)Oc1ccc(-n2cnc(-c3ccc(NC(=S)Nc4ccccc4-c4nnco4)cc3)n2)cc1` [F44, 1-(2-(1,3,4-Oxadiazol-2-yl)phenyl)-3-(4-(1-(4-(trifluoromethoxy)phenyl)-1H-1,2,4-triazol-3-yl)phenyl)thiourea]: the mortality at 50 µg/cm2 in data set [1] and in data set [2] was 0% each time. For the same molecule, in data set [4], the “YFM % Control (or Mortality) rating” value is “D (No activity noticed in this bioassay)”.

With `COc1ccc(NC(=O)NCc2ccc(-c3ncn(-c4ccc(OC(F)(F)F)cc4)n3)cc2)cc1` [F109, 1-(4-Methoxyphenyl)-3-(4-(1-(4-(trifluoromethoxy)phenyl)-1H-1,2,4-triazol-3-yl)benzyl)urea], the mortality at 50 µg/cm2 in data set [1] and in data set [2] was 0% in each case. Moreover, the “YFM % Control (or Mortality) rating” value in data set [4] is given as “D (No activity noticed in this bioassay)”.

As to `O=C(Nc1ccc(-c2ncn(-c3ccc(OC(F)(F)F)cc3)n2)cc1)Nc1ccccc1OC(F)(F)F` [F26, 1-(2-(Trifluoromethoxy)phenyl)-3-(4-(1-(4-(trifluoromethoxy)phenyl)-1H-1,2,4-triazol-3-yl)phenyl)urea], the mortality at 50 µg/cm2 in data set [1] and in data set [2] was 50 to 100% throughout. For the same molecule, in data set [4], the “YFM % Control (or Mortality) rating” value is reported as “D (No activity noticed in this bioassay)”.

Turning to `O=C(Nc1ccc(-c2ncn(-c3ccc(OC(F)(F)F)cc3)n2)cc1)Nc1ccccc1-c1cccnc1` [F62, 1-(2-(Pyridin-3-yl)phenyl)-3-(4-(1-(4-(trifluoromethoxy)phenyl)-1H-1,2,4-triazol-3-yl)phenyl)urea], the mortality at 50 µg/cm2 in data set [1] and in data set [2] was 50 to 100% each time. Besides, in data set [4], the “YFM % Control (or Mortality) rating” value is given as “B (More than 0 - Less than 80)”.

As to `O=C(NCc1ccc(-c2ncn(-c3ccc(OC(F)(F)F)cc3)n2)cc1)Nc1ccc(Cl)cc1` [F105, 1-(4-Chlorophenyl)-3-(4-(1-(4-(trifluoromethoxy)phenyl)-1H-1,2,4-triazol-3-yl)benzyl)urea], the mortality at 50 µg/cm2 in data set [1] and in data set [2] was 50 to 100% each time. In addition, the “YFM % Control (or Mortality) rating” value in data set [4] is “B (More than 0 - Less than 80)”.

Take `Cc1ccccc1NC(=O)NCCCc1ccc(-c2ncn(-c3ccc(OC(F)(F)F)cc3)n2)cc1` [F77, 1-(o-tolyl)-3-(3-(4-(1-(4-(trifluoromethoxy)phenyl)-1H-1,2,4-triazol-3-yl)phenyl)propyl)urea]: the mortality at 50 µg/cm2 in data set [1] and in data set [2] was 50 to 100% each time. The “YFM % Control (or Mortality) rating” value in data set [4] is “A (80-100)”.

`O=C(NCCCc1ccc(-c2ncn(-c3ccc(OC(F)(F)F)cc3)n2)cc1)Nc1ccccc1Cl` [F84, 1-(2-Chlorophenyl)-3-(3-(4-(1-(4-(trifluoromethoxy)phenyl)-1H-1,2,4-triazol-3-yl)phenyl)propyl)urea]: the mortality at 50 µg/cm2 in data set [1] and in data set [2] was 50 to 100% in each case. Moreover, the “YFM % Control (or Mortality) rating” value in data set [4] is given as “B (More than 0 - Less than 80)”.

On to `COc1ccc(NC(=O)NCCCCc2ccc(-c3ncn(-c4ccc(OC(F)(F)F)cc4)n3)cc2)cc1` [F97, 1-(4-Methoxyphenyl)-3-(4-(4-(1-(4-(trifluoromethoxy)phenyl)-1H-1,2,4-triazol-3-yl)phenyl)butyl)urea], for which the figures for the mortality at 50 µg/cm2 in data set [1] and in data set [2] were 0 to 50% and 0%, respectively. Further, in data set [4], the “YFM % Control (or Mortality) rating” value is on record as “D (No activity noticed in this bioassay)”.

In the case of `FC(F)(F)Oc1ccc(-n2cnc(-c3ccc(NC(=S)Nc4ncccc4-c4ccccc4)cc3)n2)cc1` [F50, 1-(3-Phenylpyridin-2-yl)-3-(4-(1-(4-(trifluoromethoxy)phenyl)-1H-1,2,4-triazol-3-yl)phenyl)thiourea], the mortality at 50 µg/cm2 in data set [1] and in data set [2] was 0% each time. Further, in data set [4], the “YFM % Control (or Mortality) rating” value is reported as “D (No activity noticed in this bioassay)”.

Turning to `Fc1ccc(NC(=S)Nc2ccc(-c3ncn(-c4ccc(OC(F)(F)F)cc4)n3)cc2)cc1` [F72, 1-(4-Fluorophenyl)-3-(4-(1-(4-(trifluoromethoxy)phenyl)-1H-1,2,4-triazol-3-yl)phenyl)thiourea], the mortality at 50 µg/cm2 in data set [1] lay in the range of 50 to 100%. Besides, in data set [3], the mortality at 200 ppm was found to be 0%. The “YFM % Control (or Mortality) rating” value in data set [4] is listed as “B (More than 0 - Less than 80)”.

Consider `Cc1ccccc1NC(=O)NCc1ccc(-c2ncn(-c3ccc(OC(F)(F)F)cc3)n2)cc1` [F100, 1-(o-Tolyl)-3-(4-(1-(4-(trifluoromethoxy)phenyl)-1H-1,2,4-triazol-3-yl)benzyl)urea], for which the mortality at 50 µg/cm2 in data set [1] and in data set [2] was 0% throughout. In addition, the “YFM % Control (or Mortality) rating” value in data set [4] is given as “D (No activity noticed in this bioassay)”.

On to `CSc1ccccc1-c1ccccc1NC(=S)Nc1ccc(-c2ncn(-c3ccc(OC(F)(F)F)cc3)n2)cc1` [F42, 1-(2′-(Methylthio)-[1,1′-biphenyl]-2-yl)-3-(4-(1-(4-(trifluoromethoxy)phenyl)-1H-1,2,4-triazol-3-yl)phenyl)thiourea], for which the mortality at 50 µg/cm2 in data set [1] and in data set [2] was 50 to 100% in each case. For the same molecule, the “YFM % Control (or Mortality) rating” value in data set [4] was “B (More than 0 - Less than 80)”.
